Data from publication PMC3578829, “A Small Molecule (Pluripotin) as a Tool for Studying Cancer Stem Cell Biology: Proof of Concept” (PLoS ONE, 2013).
Where “and” joins values, the source holds several entries; their conditions need not be identical. Equal entries are not always repeated.

What was measured:
[1] = system: colon cell lines; assay: NCI Anticancer Screen growth inhibition; assay type: cell-based; conditions: 2 day exposure; mean±s.e.m., n = 7 colon cell lines
From the text: (n = 6, paired Student’s t test, p = 0.02, Table S1). […] Finally, in a representative SC-1 sensitive tumor line (HCT-116), there was no difference in the distribution of the SC-1 treated cell population across the cell cycle compared to control treated cells (Figure S4).

[2] = system: COLO 205; assay: Cell growth after five day exposure; assay type: cell-based; conditions: 0.1 µM added day 1, harvested 5 days later
Method: (§1) Five day exposures were conducted.

[3] = system: KM12; assay: Cell growth after five day exposure; assay type: cell-based; conditions: 0.1 µM added day 1, harvested 5 days later
Method: as §1

[4] = system: SW-620; assay: Cell growth after five day exposure; assay type: cell-based; conditions: 0.1 µM added day 1, harvested 5 days later
Method: as §1

[5] = system: HCT-116; assay: Cell growth after five day exposure; assay type: cell-based; conditions: 0.1 µM added day 1, harvested 5 days later
Method: as §1

[6] = system: HCT-15; assay: Cell growth after five day exposure; assay type: cell-based; conditions: 0.1 µM added day 1, harvested 5 days later
Method: as §1

[7] = system: HCC-2998; assay: Cell growth after five day exposure; assay type: cell-based; conditions: 0.1 µM added day 1, harvested 5 days later
Method: as §1

[8] = system: HT29; assay: Cell growth after five day exposure; assay type: cell-based; conditions: 0.1 µM added day 1, harvested 5 days later
Method: as §1

[9] = molecular target: T1, RSK4 (Homo sapiens, UniProt Q9UK32); assay: Miniaturized 33P-based kinase screening assay; assay type: biochemical; conditions: max 10 µM, 3-fold serial dilution, n = 2
T1 construct: purchased Reaction Biology Corporation (Malvern, PA), contract assay
Method: (§2) The RSK2 in vitro kinase inhibition assay utilized was a modification of protocols established by Nguyen et al.. Additional protocols that confirmed the results depicted in Figure 4 and evaluated kinase inhibitory activity in a random selection of protein kinases (Table 3) were conducted at Reaction Biology Corporation (Malvern, PA). This was a miniaturized ^33P-based screening assay.

[10] = molecular target: T2, p70S6K (Homo sapiens, UniProt P23443); assay: Miniaturized 33P-based kinase screening assay; assay type: biochemical; conditions: max 10 µM, 3-fold serial dilution, n = 2
T2 construct: purchased Reaction Biology Corporation (Malvern, PA), contract assay
Method: as §2

[11] = molecular target: T3, RSK3 (Homo sapiens, UniProt Q15349); assay: Miniaturized 33P-based kinase screening assay; assay type: biochemical; conditions: max 10 µM, 3-fold serial dilution, n = 2
T3 construct: purchased Reaction Biology Corporation (Malvern, PA), contract assay
Method: as §2

[12] = molecular target: T4, PIM1 (Homo sapiens, UniProt P11309); assay: Miniaturized 33P-based kinase screening assay; assay type: biochemical; conditions: max 10 µM, 3-fold serial dilution, n = 2
T4 construct: purchased Reaction Biology Corporation (Malvern, PA), contract assay
Method: as §2

[13] = molecular target: RSK2 (Homo sapiens, UniProt P51812); assay: Miniaturized 33P-based kinase screening assay; assay type: biochemical; conditions: max 10 µM, 3-fold serial dilution, n = 2
Method: as §2

[14] = molecular target: T5, PLK2 (Homo sapiens, UniProt Q9NYY3); assay: Miniaturized 33P-based kinase screening assay; assay type: biochemical; conditions: max 10 µM, 3-fold serial dilution, n = 2
T5 construct: purchased Reaction Biology Corporation (Malvern, PA), contract assay
Method: as §2

[15] = molecular target: T6, Abl1 (Homo sapiens, UniProt P00519); assay: Miniaturized 33P-based kinase screening assay; assay type: biochemical; conditions: max 10 µM, 3-fold serial dilution, n = 2
T6 construct: purchased Reaction Biology Corporation (Malvern, PA), contract assay
Method: as §2

[16] = molecular target: T7, RSK1 (Homo sapiens, UniProt Q15418); assay: Miniaturized 33P-based kinase screening assay; assay type: biochemical; conditions: max 10 µM, 3-fold serial dilution, n = 2
T7 construct: purchased Reaction Biology Corporation (Malvern, PA), contract assay
Method: as §2

[17] = system: colon tumor lines; conditions: five day exposure to 0.1 µM SC-1
[18] = system: HCT-116; assay: Cell cycle analysis; assay type: cell-based; conditions: harvested day 5
Method: Approximately 5×10^6 cells were washed with PBS, resuspended in 5 ml of 4°C 70% ethyl alcohol (ETOH) and then incubated at 4°C for 30 min. The sample was washed again before the addition of 0.5 ml PBS containing 0.2 mg/ml of RNAse A. The sample was then incubated at 37°C for 15 minutes. Next, 0.5 ml propidium iodide (0.05 mg/ml in PBS) was added and incubated at 4°C in the dark for 15 min. The sample was then analyzed on the FACScan (Becton Dickinson, San Jose, CA) flow cytometer. Modfit software evaluated DNA content with an automatic module to determine the fraction of cells in the cell cycle compartments.

[19] = system: Seven Colon Tumor Lines of the NCI60 Panel; assay: Limiting dilution tumorigenicity, combined colon tumor lines; assay type: in vivo, NOD.SCID mice; conditions: for Tumor take rate, TOTAL: 7 colon tumor lines treated 5 days with 0.1 µM SC-1
Method: as §1
Six week old female NOD.SCID mice were randomly assigned to each of 20 treatment arms (n = 5/group). Treated and control colon tumor lines were enzymatically harvested and counted prior to dilution in RPMI 1640 (at 10, 100, 1,000, 10,000 cells/inoculum) for subcutaneous injection into the axillary region using a volume of […]. Positive control groups were established such that tumor formation occurred in all mice in approximately one week thus confirming that all tumor lines studied were tumorigenic. Cell inocula for the positive control groups ranged from 1×10^6 to 2.5×10^6. Cell viability of the cell stocks was assessed by trypan blue exclusion prior to dilution for injection and was routinely found to be >95%. Tumor formation was monitored weekly using caliper measurements and the tumor mass was calculated as weight in mg = 1/2×(tumor length)×(tumor width)^2. All experiments were terminated at 120 days or when tumor weight exceeded 2000 mg for any individual mouse. In selected studies, tumor cells were resuspended in Matrigel (50% concentration, BD Biosciences) prior to injection.
Chi square tests and nonparametric conditional estimate for the Cochran Mantel-Haenzel common odds ratio were performed for the limiting dilution tumorigenicity studies. In the later case, the tumor lines were used as the stratification variable and the test evaluated whether the tumor take rate was equal in the two groups (control and treated). The purpose of combining data across distinct colon tumor lines was to aggregate small changes that if summed, may represent a heterogeneous population of patients with colon tumors, similar to analyses in clinical trials.

[20] = system: OCT4; assay: Immunoblotting of OCT4 in HT29; assay type: cell-based; conditions: 0.1 µM SC-1
Method: Standard protein electrophoretic techniques were followed using previously published protocols. For these studies, the colon lines were cultured for 5 days with and without treatments, harvested with trypsin (0.25% trypsin 0.5 mM EDTA, Invitrogen), counted and lysed with a whole cell lysis buffer (10 mM Tris, 1.0 mM EDTA, 50 mM NaCl, 0.5% deoxycholate, 0.5% NP-40, 0.5% SDS, 1.0 mM PMSF, and aprotonin and a cocktail of phosphatase and protease inhibitors). The whole cell lysate was heated to 100°C for 10 min and then fractionated (1000 g, 10 min, 4°C). Protein concentrations were measured with the Pierce BCA Protein Assay. Twenty to 40 µg of protein lysate per lane were loaded onto 10% SDS polyacrylamide gels (Ready-Gels, Biorad) with Laemmli buffer. For immunoblotting, the primary antibodies were diluted in Tween/Tris wash buffer (0.1 mM Tris-HCl pH 7.5, 2.5% Tween-20, 150 mM NaCl) and 5% BSA or nonfat dry milk and incubated overnight at 4°C. Visualization of specific bands was accomplished with an alkaline phosphatase-labeled secondary anti-immunoglobulin antibody and the ECF Chemifluorescent reagent (GE Amersham). Pixel intensity of the imaged bands was measured using STORM (GE Amersham) and Image Quant Software. Normalization for loading was accomplished by reprobing with an anti-actin antibody, quantification of pixel intensity and data normalization.

T7 sequence (Q15418 whole entry): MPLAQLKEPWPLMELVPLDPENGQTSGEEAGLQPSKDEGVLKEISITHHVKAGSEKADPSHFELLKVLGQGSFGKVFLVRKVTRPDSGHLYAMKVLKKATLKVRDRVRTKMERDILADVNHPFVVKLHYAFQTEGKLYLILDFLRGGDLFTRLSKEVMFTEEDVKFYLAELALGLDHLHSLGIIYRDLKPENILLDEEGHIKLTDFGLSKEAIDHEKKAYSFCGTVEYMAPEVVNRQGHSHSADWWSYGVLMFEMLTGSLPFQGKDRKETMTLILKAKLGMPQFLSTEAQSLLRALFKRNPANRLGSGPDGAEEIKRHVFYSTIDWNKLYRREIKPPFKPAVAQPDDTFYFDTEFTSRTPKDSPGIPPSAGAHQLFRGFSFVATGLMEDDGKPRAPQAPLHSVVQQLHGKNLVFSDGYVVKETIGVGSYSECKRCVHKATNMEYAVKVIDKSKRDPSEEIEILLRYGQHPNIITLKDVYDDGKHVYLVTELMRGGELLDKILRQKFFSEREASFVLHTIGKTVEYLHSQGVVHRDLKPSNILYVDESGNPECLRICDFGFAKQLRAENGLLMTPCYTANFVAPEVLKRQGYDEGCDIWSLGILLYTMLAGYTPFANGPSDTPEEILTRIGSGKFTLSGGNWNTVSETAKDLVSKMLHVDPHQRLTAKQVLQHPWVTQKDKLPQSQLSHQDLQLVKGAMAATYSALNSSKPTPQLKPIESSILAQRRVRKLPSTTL
T5 sequence (Q9NYY3 whole entry): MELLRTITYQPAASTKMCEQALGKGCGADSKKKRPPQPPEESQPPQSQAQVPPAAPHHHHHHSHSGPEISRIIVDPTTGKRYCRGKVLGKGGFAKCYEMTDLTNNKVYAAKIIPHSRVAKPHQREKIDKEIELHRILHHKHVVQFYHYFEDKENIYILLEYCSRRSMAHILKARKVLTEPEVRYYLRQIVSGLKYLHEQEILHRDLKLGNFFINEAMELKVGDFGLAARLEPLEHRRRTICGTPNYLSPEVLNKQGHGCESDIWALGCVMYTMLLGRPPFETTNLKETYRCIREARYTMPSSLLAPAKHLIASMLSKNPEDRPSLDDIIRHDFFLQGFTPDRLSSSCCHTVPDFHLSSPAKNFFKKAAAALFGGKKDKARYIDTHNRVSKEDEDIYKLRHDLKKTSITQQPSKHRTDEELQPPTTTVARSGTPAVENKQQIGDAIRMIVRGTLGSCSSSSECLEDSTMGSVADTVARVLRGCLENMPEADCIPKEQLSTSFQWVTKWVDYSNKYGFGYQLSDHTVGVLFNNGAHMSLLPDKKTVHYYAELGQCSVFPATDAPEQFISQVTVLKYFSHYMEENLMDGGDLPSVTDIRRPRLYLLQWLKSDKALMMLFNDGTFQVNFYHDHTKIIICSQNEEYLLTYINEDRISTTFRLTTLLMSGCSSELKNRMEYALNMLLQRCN
T6 sequence (P00519 whole entry): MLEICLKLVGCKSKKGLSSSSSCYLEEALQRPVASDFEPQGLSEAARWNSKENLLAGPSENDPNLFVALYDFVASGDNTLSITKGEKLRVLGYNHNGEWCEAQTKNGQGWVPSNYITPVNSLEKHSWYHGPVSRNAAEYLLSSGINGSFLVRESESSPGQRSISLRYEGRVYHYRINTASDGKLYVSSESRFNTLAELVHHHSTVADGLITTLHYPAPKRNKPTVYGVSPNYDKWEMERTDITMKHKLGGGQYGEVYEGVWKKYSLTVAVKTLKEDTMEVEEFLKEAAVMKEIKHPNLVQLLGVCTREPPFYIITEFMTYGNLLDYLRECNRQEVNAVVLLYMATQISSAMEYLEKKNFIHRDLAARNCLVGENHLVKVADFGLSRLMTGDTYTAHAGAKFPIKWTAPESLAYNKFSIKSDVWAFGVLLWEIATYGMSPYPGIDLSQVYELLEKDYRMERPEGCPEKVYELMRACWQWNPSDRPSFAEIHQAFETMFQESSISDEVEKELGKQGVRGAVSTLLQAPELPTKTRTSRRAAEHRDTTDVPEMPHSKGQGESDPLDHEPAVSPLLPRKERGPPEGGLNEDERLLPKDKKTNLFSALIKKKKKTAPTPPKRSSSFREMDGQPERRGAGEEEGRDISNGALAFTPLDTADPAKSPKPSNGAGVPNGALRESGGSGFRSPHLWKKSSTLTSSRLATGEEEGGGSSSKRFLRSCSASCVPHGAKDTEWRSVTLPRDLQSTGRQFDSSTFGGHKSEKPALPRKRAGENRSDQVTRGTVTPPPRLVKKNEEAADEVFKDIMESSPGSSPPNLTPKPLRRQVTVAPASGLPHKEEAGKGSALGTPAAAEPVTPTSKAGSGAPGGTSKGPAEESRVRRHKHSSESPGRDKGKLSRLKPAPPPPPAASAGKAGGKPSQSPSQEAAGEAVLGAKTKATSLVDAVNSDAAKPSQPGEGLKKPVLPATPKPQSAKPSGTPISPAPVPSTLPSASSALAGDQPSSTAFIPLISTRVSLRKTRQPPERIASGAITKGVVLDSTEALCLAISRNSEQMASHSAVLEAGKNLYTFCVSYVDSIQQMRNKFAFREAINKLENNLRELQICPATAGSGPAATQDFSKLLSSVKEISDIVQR
T3 sequence (Q15349 whole entry): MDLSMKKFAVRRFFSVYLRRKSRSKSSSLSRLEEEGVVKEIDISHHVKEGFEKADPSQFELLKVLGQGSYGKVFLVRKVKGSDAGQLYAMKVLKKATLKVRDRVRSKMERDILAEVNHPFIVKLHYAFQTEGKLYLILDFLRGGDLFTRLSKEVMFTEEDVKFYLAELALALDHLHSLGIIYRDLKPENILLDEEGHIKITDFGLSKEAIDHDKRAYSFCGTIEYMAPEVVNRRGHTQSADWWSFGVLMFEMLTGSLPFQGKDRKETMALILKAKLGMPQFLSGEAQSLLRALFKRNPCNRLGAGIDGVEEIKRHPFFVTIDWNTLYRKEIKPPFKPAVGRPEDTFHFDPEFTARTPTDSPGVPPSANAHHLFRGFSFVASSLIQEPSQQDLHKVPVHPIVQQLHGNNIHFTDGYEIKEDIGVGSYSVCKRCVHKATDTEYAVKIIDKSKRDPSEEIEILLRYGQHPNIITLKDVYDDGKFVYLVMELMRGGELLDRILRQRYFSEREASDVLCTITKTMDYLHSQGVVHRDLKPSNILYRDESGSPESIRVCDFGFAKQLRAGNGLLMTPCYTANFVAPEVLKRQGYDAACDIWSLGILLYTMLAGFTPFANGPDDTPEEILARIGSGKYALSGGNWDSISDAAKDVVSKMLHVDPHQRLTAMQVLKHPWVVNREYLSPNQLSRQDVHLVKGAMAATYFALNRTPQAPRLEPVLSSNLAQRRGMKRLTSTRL
T2 sequence (P23443 whole entry): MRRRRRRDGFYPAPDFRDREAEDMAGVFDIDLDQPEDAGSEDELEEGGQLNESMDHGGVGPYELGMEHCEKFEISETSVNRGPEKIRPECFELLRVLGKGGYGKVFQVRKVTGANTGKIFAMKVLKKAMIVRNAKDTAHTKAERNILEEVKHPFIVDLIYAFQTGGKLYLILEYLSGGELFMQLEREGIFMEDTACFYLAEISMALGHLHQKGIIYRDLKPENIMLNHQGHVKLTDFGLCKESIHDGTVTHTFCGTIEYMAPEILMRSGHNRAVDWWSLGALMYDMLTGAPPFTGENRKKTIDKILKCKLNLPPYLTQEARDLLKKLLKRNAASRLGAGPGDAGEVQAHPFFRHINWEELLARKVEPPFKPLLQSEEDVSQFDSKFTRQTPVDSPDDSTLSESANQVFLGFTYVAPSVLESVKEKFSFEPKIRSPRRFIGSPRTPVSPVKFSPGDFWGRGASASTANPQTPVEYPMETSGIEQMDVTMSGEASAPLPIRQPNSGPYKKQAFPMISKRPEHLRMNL
T1 sequence (Q9UK32 whole entry): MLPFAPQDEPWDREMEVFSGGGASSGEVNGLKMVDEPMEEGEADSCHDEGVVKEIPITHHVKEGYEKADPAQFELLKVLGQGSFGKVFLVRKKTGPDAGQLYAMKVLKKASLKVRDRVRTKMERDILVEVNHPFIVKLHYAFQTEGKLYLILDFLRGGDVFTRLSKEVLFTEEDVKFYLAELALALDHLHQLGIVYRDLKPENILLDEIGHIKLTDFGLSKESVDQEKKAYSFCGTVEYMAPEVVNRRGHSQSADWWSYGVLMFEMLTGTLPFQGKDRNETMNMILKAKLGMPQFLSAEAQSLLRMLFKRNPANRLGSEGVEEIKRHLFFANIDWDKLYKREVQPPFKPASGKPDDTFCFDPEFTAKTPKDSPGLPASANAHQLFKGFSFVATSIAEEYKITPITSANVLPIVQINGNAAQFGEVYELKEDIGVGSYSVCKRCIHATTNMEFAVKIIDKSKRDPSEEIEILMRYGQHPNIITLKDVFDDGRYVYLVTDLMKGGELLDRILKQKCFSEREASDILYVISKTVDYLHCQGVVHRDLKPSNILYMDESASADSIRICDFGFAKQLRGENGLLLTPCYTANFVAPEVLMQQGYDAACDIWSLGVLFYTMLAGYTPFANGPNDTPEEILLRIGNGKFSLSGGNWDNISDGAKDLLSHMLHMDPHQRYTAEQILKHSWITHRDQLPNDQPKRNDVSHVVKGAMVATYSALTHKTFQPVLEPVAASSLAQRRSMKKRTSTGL
T4 sequence (P11309 whole entry): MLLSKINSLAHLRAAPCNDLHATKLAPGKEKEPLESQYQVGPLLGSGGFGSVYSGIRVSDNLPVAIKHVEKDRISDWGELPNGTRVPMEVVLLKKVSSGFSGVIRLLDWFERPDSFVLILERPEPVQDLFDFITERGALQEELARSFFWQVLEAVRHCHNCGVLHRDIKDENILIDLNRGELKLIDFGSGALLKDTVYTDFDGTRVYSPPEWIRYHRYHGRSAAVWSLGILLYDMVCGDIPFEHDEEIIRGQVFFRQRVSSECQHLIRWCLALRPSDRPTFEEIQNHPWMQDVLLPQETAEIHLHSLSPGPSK

IC50 [9]: 10 µM | IC50 [10]: 1400 nM | IC50 [11]: 3.3 µM | IC50 [12]: ≥ 10 µM | IC50 [13]: 2500 nM | IC50 [14]: 2200 nM | IC50 [15]: 5 nM | IC50 [16]: 500 nM
Structure (SMILES): Cc1cc(Nc2ncc3c(n2)N(C)C(=O)N(c2cc(NC(=O)c4cccc(C(F)(F)F)c4)ccc2C)C3)n(C)n1 [SC-1]
GI50 [1]: 91 ± 70 nM | Fold Change from Initial Inocula [2]: 2 | Fold Change from Initial Inocula [3]: 20.6 | Fold Change from Initial Inocula [4]: 27.5 | Fold Change from Initial Inocula [5]: 31 | Fold Change from Initial Inocula [6]: 19.8 | Fold Change from Initial Inocula [7]: 4 | Fold Change from Initial Inocula [8]: 17.5 | Cell number after in vitro SC-1 treatment vs control [17]: statistically significant decrease in cell number | Distribution of cell population across the cell cycle vs control [18]: no difference | Tumor take rate, TOTAL ([19]; 100 cells inoculated s.c.): 2/35 | Tumor take rate, TOTAL ([19]; 1000 cells inoculated s.c.): 6/35 | Tumor take rate, TOTAL ([19]; 10000 cells inoculated s.c.): 19 of 35 and 19/35 | Frequency estimate of tumor initiating ability, increase vs control ([19]; cumulative tumor take rate, 7 colon tumor lines, calculated from Taswell): approximately 2 fold | Mean day to 1000 mg tumor ([19]; mean±s.e.m. of 5 colon lines forming tumors, 10,000 cells/inoculum, 0.1 µM SC-1 pretreatment): 83 ± 19 days | OCT4 protein expression [20]: increased
